In article PMC4245125, “Pharmacological and Behavioral Characterization of D-473, an Orally Active Triple Reuptake Inhibitor Targeting Dopamine, Serotonin and Norepinephrine Transporters” (PLoS ONE, 2014):

Tests used:
M5 = target: T1, M5 (Homo sapiens, UniProt P08912); assay: biochemical; conditions: read-out: % Inhibition of Binding at 10 µM D-473
T1 construct: purchased NIMH PDSP

Alpha1D = target: T2, Alpha1D (Homo sapiens, UniProt P25100); assay: NIMH PDSP receptor binding, Alpha1D; conditions: [3H]Prazosin, read-out: % Inhibition of Binding at 10 µM D-473
T2 construct: purchased NIMH PDSP

D4 = target: T3, D4 (Homo sapiens, UniProt P21917); assay: NIMH PDSP receptor binding, D4; conditions: [3H]N-methylspiperone, read-out: % Inhibition of Binding at 10 µM D-473
T3 construct: purchased NIMH PDSP

[1] = system: extracellular DA, 5-HT, NE and metabolites in the dorsal lateral striatum (DLS); assay: Microdialysis in dorsal lateral striatum, monoamines and metabolites; type: in vivo, rat; conditions: 10 mg/kg i.p.
Procedure: (§1) Adult male Sprague-Dawley rats (Harlan, Indianapolis, IN) weighing between 250 and 350 g were used for all experiments. Rats were housed in a temperature and humidity controlled room with 12 hr light/dark cycles with food and water available ad libitum. Adequate measures were taken to prevent animal pain and discomfort. All animals were treated as approved by the University of Michigan Unit for Laboratory Animal Medicine (ULAM) and in accordance with the National Institute of Health (NIH) Guidelines for the Care and Use of Laboratory Animals.
(§2) Rats were anesthetized with using an isoflurane vaporizer that was interfaced to a model 963 Ultra Precise stereotaxic instrument with 0.1 mm resolution (David Kopf Instruments, Tujunga, CA). Concentrically designed microdialysis probes (1 mm dialyzing length) were built in house then implanted bilaterally into the dorsal lateral striatum (DLS) and the medial prefrontal cortex (mPFC) according to the following coordinates from bregma and dura (in mm): AP +1, ML +3.3, DV –5.7 and AP +3, ML −0.5, DV −5, respectively (Paxinos and Watson, 2007). […] 1 mm probes were selected for higher spatial resolution and lower tissue damage compared to larger probes. Probes were secured to the skull by acrylic dental cement and metallic screws. Following surgery, rats were allowed to recover and experiments were run 24 hr after probe implantation. Microdialysis probes were flushed at a flow rate of 2 µl/min with aCSF (composition in mM: CaCl2 1.2; KCl 2.7, NaCl 148 and MgCl2 0.85) for 2 hr using a Chemyx Fusion 400 syringe pump (Chemyx, Stafford, TX). Perfusion flow rate was then reduced to 1 µl/min and samples were collected every 10 min. Baseline values were collected for 50 min and then the drug D-473 was injected (10 mg/kg, i.p.) and samples were collected for an additional 2 h. When experiments were completed, animals were euthanized and then brains were extracted and frozen at −80°C until histology.
(§3) Dopamine, norepinephrine (NE), serotonin (5HT), DOPAC, homovanillic acid (HVA) and 5-hydroxyindole acetic acid (5-HIAA) were analyzed using a benozyolation derivitization LC-MS method recently described by our laboratory. Briefly, 10 µl dialysate samples were derivatized by adding 5 µl of 100 mM sodium tetraborate, 5 µl of 2% benzoyl chloride in acetonitrile, and then 5 µl of a stable ^13C benzoylated isotope internal standard mixture was then added to improve quantitation. A Thermo Fisher Accela UHPLC (Waltham, MA) system automatically injected 5 µl of the sample onto a Waters (Milford, MA) HSS T3 reverse phase HPLC column (1 mm X 100 mm, 1.8 µm). Mobile phase A consisted of 10 mM ammonium formate and 0.15% formic acid. Mobile phase B was pure acetonitrile. Analytes were detected by an Thermo Fisher TSQ Quantum Ultra triple quadrupole mass spectrometer operating in multiple reaction monitoring (MRM) mode. The assay limits of detection were (nM in dialysate) for DA, 0.3; NE, 0.2; 5HT, 0.1; HVA, 0.5; DOPAC, 2; and 5HIAA, 5. […] Average standard deviation in above basal levels was 18%.
(§4) All neurochemical data were transformed into percent baseline with baseline values all averaging 100%. Statistical analysis was performed by t-test analysis of every point relative to baseline values (i.e. 100%) using Prism 6 (Graphpad Software Inc, La Jolla, CA). P values <0.05 were considered to be statistically significant.

PBR = assay: NIMH PDSP receptor binding, PBR
Beta3 = target: T4, Beta3 (Homo sapiens, UniProt P13945); assay: NIMH PDSP receptor binding, Beta3; conditions: [125I]Iodopindolol
T4 construct: NIMH PDSP

Alpha2C = Alpha2C (Homo sapiens, UniProt P18825); assay: NIMH PDSP receptor binding, Alpha2C; conditions: [3H]Clonidine
M4 = target: T5, M4 (Homo sapiens, UniProt P08173); assay: biochemical; conditions: read-out: % Inhibition of Binding at 10 µM D-473
T5 construct: purchased NIMH PDSP

H1 = target: T6, H1 (Homo sapiens, UniProt P35367); assay: NIMH PDSP receptor binding, H1; conditions: [3H]Pyrilamine, read-out: % Inhibition of Binding at 10 µM D-473
T6 construct: purchased NIMH PDSP

H2 = target: T7, H2 (Homo sapiens, UniProt P25021); assay: NIMH PDSP receptor binding, H2; conditions: [3H]Tiotodine
T7 construct: NIMH PDSP

[2] = system: extracellular DA, 5-HT, NE and metabolites in the medial prefrontal cortex (mPFC); assay: Microdialysis in medial prefrontal cortex, monoamines and metabolites; type: in vivo, rat; conditions: 10 mg/kg i.p.
Procedure: as §1, §2, §3, §4

5HT6 = target: T8, 5HT6 (Homo sapiens, UniProt P50406); assay: NIMH PDSP receptor binding, 5HT6; conditions: [3H]LSD, read-out: % Inhibition of Binding at 10 µM D-473
T8 construct: purchased NIMH PDSP

[3] = system: CNS GPCR receptors and ion channels; assay: CNS broad receptors screening, summary statements by receptor family; type: binding
[4] = 10 µM, read-out: % Inhibition of Binding at 10 µM D-473
[5] = secondary assay, read-out: Ki for D-473

T4 sequence (P13945 whole entry): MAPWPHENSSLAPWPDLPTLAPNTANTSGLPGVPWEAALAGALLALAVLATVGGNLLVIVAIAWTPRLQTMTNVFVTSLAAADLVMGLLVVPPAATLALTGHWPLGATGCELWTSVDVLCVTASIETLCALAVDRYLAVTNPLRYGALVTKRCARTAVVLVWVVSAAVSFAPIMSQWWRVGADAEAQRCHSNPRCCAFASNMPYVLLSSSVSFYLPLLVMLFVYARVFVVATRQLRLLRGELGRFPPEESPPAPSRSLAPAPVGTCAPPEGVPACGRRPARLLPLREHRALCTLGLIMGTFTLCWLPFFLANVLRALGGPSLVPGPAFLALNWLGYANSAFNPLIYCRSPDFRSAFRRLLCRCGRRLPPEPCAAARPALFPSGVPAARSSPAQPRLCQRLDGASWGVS
T7 sequence (P25021 whole entry): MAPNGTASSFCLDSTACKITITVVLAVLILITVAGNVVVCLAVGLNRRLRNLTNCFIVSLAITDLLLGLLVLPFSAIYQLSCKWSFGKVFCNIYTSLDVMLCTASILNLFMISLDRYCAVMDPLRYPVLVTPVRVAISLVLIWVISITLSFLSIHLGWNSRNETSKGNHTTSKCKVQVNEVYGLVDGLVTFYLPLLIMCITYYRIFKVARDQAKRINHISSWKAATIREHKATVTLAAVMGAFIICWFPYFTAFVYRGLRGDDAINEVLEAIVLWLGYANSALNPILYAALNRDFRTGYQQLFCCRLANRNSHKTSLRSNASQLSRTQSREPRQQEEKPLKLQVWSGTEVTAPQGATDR
Chain of Alpha2C (P18825 whole entry): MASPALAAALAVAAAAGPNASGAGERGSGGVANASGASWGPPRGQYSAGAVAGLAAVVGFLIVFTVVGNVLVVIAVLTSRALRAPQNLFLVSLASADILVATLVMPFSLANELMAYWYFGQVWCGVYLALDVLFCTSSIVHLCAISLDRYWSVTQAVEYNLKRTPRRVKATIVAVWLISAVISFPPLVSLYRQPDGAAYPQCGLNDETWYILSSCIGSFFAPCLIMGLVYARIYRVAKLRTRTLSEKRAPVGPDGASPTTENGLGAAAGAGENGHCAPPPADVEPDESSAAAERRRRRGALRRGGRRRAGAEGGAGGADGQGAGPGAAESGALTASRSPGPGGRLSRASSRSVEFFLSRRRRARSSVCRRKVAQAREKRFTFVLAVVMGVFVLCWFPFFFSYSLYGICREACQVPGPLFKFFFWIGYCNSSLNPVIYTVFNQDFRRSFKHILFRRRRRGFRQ
T2 sequence (P25100 whole entry): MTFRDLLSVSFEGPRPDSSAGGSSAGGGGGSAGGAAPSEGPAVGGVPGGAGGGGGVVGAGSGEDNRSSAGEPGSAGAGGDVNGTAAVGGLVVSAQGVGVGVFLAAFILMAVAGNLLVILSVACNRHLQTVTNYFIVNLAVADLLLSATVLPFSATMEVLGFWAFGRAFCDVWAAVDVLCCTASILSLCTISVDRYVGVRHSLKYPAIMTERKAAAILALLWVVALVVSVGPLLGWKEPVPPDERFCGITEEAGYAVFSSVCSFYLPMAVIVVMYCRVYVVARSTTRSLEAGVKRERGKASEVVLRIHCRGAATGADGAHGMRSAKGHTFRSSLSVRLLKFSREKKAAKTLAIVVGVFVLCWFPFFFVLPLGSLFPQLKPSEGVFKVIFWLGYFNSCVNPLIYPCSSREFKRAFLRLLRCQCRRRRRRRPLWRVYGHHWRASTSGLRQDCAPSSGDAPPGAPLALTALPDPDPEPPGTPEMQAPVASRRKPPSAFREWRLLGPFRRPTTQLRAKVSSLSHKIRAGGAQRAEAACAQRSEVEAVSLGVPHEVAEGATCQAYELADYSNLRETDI
T5 sequence (P08173 whole entry): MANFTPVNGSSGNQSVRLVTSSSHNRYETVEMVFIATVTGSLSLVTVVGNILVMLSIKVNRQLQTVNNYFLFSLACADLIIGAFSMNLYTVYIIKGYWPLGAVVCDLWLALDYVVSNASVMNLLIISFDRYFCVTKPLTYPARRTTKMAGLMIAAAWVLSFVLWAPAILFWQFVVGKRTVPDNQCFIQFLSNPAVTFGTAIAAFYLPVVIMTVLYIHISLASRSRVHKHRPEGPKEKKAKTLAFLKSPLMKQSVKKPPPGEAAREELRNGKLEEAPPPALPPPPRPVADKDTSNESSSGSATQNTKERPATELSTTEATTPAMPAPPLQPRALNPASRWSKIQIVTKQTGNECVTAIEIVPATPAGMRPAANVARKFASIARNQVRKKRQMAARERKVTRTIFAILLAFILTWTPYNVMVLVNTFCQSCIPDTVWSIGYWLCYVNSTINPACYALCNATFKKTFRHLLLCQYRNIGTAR
T8 sequence (P50406 whole entry): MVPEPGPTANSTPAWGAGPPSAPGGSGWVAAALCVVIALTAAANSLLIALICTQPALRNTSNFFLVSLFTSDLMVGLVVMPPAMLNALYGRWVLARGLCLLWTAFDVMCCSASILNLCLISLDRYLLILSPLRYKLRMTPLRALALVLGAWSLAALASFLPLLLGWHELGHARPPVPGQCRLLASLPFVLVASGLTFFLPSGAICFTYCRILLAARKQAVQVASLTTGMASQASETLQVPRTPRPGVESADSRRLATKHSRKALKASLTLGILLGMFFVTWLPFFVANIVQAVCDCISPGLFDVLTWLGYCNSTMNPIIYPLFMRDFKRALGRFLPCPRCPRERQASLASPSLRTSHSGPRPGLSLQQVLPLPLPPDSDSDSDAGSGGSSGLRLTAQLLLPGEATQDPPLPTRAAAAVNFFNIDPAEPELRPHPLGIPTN
T6 sequence (P35367 whole entry): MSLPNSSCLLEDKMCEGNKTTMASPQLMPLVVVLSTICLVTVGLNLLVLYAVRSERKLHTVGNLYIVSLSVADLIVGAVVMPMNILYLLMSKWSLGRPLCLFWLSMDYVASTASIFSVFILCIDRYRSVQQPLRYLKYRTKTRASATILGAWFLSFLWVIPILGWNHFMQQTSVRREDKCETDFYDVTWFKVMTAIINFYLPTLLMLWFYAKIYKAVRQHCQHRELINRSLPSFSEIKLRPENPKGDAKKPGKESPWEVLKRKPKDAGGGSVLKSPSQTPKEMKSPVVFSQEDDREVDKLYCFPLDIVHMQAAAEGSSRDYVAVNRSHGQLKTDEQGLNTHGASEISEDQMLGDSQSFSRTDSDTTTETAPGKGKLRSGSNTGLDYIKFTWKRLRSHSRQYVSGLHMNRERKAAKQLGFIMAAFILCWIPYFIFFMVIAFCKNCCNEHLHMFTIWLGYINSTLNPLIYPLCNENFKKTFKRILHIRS
T3 sequence (P21917 whole entry): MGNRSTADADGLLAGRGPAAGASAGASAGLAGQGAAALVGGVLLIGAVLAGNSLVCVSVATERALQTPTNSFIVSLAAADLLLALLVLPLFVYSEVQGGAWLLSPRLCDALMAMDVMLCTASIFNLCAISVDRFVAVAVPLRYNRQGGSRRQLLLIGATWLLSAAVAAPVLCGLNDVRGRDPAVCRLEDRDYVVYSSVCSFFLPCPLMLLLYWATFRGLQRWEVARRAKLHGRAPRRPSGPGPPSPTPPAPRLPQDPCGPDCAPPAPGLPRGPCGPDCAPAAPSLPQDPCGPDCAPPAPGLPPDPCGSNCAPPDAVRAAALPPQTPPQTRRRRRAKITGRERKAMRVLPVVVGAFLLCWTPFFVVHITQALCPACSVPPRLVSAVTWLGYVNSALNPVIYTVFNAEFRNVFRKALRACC
T1 sequence (P08912 whole entry): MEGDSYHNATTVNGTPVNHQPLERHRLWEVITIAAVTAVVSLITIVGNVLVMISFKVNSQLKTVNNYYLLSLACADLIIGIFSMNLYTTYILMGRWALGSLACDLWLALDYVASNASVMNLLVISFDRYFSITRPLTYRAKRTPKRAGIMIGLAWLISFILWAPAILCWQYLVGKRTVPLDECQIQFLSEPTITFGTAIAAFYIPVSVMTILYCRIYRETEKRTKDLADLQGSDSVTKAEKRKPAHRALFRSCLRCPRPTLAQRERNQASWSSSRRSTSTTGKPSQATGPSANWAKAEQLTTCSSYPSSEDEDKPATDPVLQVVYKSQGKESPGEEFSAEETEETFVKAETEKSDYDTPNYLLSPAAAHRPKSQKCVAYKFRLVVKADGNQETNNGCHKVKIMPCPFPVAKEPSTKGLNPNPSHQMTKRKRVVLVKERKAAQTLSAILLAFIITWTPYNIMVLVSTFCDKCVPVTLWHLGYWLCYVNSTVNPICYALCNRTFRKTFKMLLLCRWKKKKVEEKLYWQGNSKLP

COc1ccc(CN[C@@H]2CO[C@H](C(c3ccc(F)cc3)c3ccc(F)cc3)C[C@H]2O)cc1 [Compound D-473, (2S,4R,5R)-2-(bis(4-fluorophenyl)methyl)-5-((4-methoxybenzyl)amino)tetrahydro-2H-pyran-4-ol]
inhibition at 10 µM (M5): 3.2%
inhibition at 10 µM (Alpha1D): 41.8%
inhibition at 10 µM (D4): 37.2%
Elevation of 5-HT over the basal level [1]: > 4 fold
Increase in DA [1]: 2 fold
Increase in NE [1]: 2 fold
Reduction of DOPAC, maximal [1]: 35–40%
Reduction of HVA, maximal [1]: 20%
Extracellular 5-HT at the end of two hours, percent baseline ([1]; baseline 100%): 215%
Extracellular 5-HT, maximal, percent baseline ([1]; baseline 100%): 403%
Extracellular DA at the end of two hours, percent baseline ([1]; baseline 100%): 129%
Extracellular DA, maximal, percent baseline ([1]; baseline 100%): 274%
Extracellular NE at the end of two hours, percent baseline ([1]; baseline 100%): 142%
Extracellular NE, maximal, percent baseline ([1]; baseline 100%): 238%
% Inhibition of Binding at 10 µM D-473 (PBR): 8.4%
inhibition at 10 µM (Beta3; [4]): 61.2%
Ki (Beta3; [5]): > 10 µM
inhibition at 10 µM (Alpha2C; [4]): 61%
Ki (Alpha2C; [5]): > 10 µM
inhibition at 10 µM (M4): -16.7%
inhibition at 10 µM (H1): 2.8%
inhibition at 10 µM (H2; [4]): 70.1%
Ki (H2; [5]): 0.141 µM
Reductions in dialysate DOPAC ([2]; Figure 8, region not specified): up to 35%
Change in the level of 5-HIAA ([2]; region not specified (mPFC and DLS studied)): did not observe any change
Effect on HVA ([2]; mPFC): lack of effect
Increase of 5-HT ([2]; mPFC): > 3 fold
Increase of DA ([2]; mPFC): 4 fold
Increase of NE ([2]; mPFC): > 5 fold
Reduction of DOPAC, maximal ([2]; mPFC): 35–40%
Extracellular 5-HT at the end of two hours, percent baseline ([2]; mPFC, baseline 100%): 150%
Extracellular 5HT, maximal, percent baseline ([2]; mPFC, baseline 100%): 339%
Extracellular DA at the end of two hours, percent baseline ([2]; mPFC, baseline 100%): 122%
Extracellular DA, maximal, percent baseline ([2]; mPFC, baseline 100%): 394%
Extracellular NE at the end of two hours, percent baseline ([2]; mPFC, baseline 100%): 173%
Extracellular NE, maximal, percent baseline ([2]; mPFC, baseline 100%): 547%
inhibition at 10 µM (5HT6): -11.4%
Affinity for alpha adrenergic or beta adrenergic receptors subtypes [3]: did not show any appreciable affinity
Affinity for muscarinic receptor subtypes [3]: Lack of any affinity
Affinity for opioid receptors, calcium channel and GABA receptor [3]: did not show any affinity
Ki ([3]; dopamine and serotonin receptor subtypes other than D1, D5, 5HT2b, read-out: Ki at dopamine and serotonin receptor subtypes (generally)): > 10 µM
